Tests used:
[1] = levels of dissolved silver with halogenated hydantoins and a source of silver; type: physicochemical
Excerpt: Hydantoin structures are also known as complexing agents in silver-plating processes (R. J. Morrissey, U.S. Patent Application Publication no. 2005/0183961). […] While not fully understood it is believed that the aforementioned increased in solubility is due to a soluble complex or association between silver and hydantoin ring structures since it has been found the silver remains soluble to a higher degree than expected thus making more silver ions available for killing harmful microorganism.
DMH is a chemical derivative of hydantoin comprising of a hydantoin ring with two methyl groups attached at the number five position of the ring. DMH is a component of Bromochlordimethyl hydantoin (BCDMH), organic source bromine utilized for disinfecting spa water. […] Additional research performed by the Applicant seems to indicate that the DMH portion of the BCDMH molecule alone may be responsible for the increased solubility of silver. The mechanism of increased silver solubility appears to involve the formation of a DMH/silver complex that has a higher solubility in water than silver salts such as […] or silver chloride. It is should be noted that the antimicrobial activity tends to increase with soluble silver concentration.

bacteria in the pool = assay: 32,000 gallon outdoor pool sanitized with FROG minerals, chlorine and DMH; bacteria monitored over three months; details: about 10 ppm to 12 ppm DMH added to pool treated with FROG minerals (silver chloride on limestone carrier) and chlorine; free chlorine as low as 0.1 ppm; three month period
Procedure: A 32,000 gallon outdoor pool was sanitized using commercially available FROG™ minerals and chlorine. The FROG™ Minerals included silver chloride on a limestone carrier. In addition to the conventional sanitizing treatment using silver chloride and chlorine sufficient DMH was added to the pool to bring the DMH content of the pool to a level of about 10 ppm to 12 ppm DMH in the pool. The free chlorine, total chlorine, pH and the bacteria in the pool were monitored over a three month period. During the period both humans and animals swam in the pool.

[2] = cited from earlier work
microbial growth = assay: single microbiological assay of the antimicrobial activity of the synthesized DMH/Ag complex; type: cell-based
[3] = used in conjunction with a source of silver

Molecule: CC1(C)C(=O)N(Cl)C(=O)N1Cl [DCDMH, 1,3 dichloro-5,5 dimethylhydantoin]
- levels of dissolved silver [1, 3]: tend to increase levels of dissolved silver

Molecule: CC1(C)NC(=O)NC1=O [DMH, 5,5-dimethylhydantoin]
- total bacteria count (bacteria in the pool): zero

Molecule: O=C1CNC(=O)N1 [Hydantoin]
- solubility in water [2]: slightly soluble in water

Molecule: CC1(C)C(=O)N(Cl)C(=O)N1Br [BCDMH, 1-bromo-3-chloro-5,5dimethylhydantoin]
- levels of dissolved silver ([1]; combined with silver ions in spa water containing bromine): higher than would be anticipated
- levels of dissolved silver [1, 3]: tend to increase levels of dissolved silver

Molecule: Silver dimethylhydantoin [synthesized DMH/Ag complex]
- antimicrobial activity compared to the equivalent level of silver used alone (microbial growth; synthesized complex): greater antimicrobial activity
- control of microbial growth (microbial growth; without added source of halide): has the potential to control microbial growth without the need for an added source of halide
